Measured values published in patent publication US7321000B2, “Ophthalmic composition containing N-acetyl-cysteine for the treatment of dry-eye syndrome” (Farmigea S.p.A., priority 2001, dated 2008).

Assay: Stability studies: autoclaving, colorimetric determination of N-AC
Assay type: physicochemical
Conditions: 120° C., 20 min.; both in the presence and absence of benzalkonium chloride
Method: The formulations underwent autoclaving (120° C., 20 min.): as highlighted in the prior art, N-acetyl-cysteine is degraded by about 30% (both in the presence and absence of benzalkonium chloride). It is, however, possible to carry out sterilisation by filtering through a 0.2 μm membrane, as was performed in the aforesaid examples.
In order to evaluate the stability of N-AC in the vehicle, it is not possible to use the HPLC method or ultraviolet spectrophotometry. The following calorimetric method was thus employed (Raggi M. A., Cavrini V. and Di Pietra A. M., Colorimetric determination of acetylcysteine, penicillamine and mercaptopropionylglycine in pharmaceutical dosage forms, J. Pharm. Sci., 71, 1384-1386 (1982)).
0.163 g of acetylcysteine is dissolved in 500 ml of distilled H2O. By diluting in a proportion of 1:5, the required concentration is obtained.
Increasing volumes of this solution (1-5 ml) are placed in a 25 ml flask and then the following are added in succession:
After 20 min the absorbance is measured at 515 nm by using as reference a control prepared at the same time as the sample.
The procedure described above was also applied to carry out the calibration of N-AC in the presence of DEAE-dextrane. For these samples, the measurement was carried out by using as reference a control containing the polymer and also a control without DEAE-dextrane.

CC(=O)N[C@@H](CS)C(=O)O [N-acetyl-cysteine]
degradation of N-acetyl-cysteine on autoclaving: about 30%
